According to patent publication US5994359A, “Imino oxyphenyl acetic acid derivatives, methods and intermediates for their preparation and use thereof” (BASF Aktiengesellschaft, priority 1995, dated 1999):

What follows are compounds tested on Heliothis virescens (assay: Heliothis virescens (tobacco budworm), contact/stomach action). Details: tobacco plants, 3rd instar larvae, mortality and antifeeding effect after 48 hours, read-out: limit concentration (lowest concentration still causing 80-100% inhibition or mortality).
Type: in vivo
Description: (§1) The active ingredients were formulated
(§2) a) as a 0.1% strength solution in acetone or
(§3) b) as a 10% emulsion in a mixture of 70% by weight of cyclohexanol, 20% by weight of Nekanil® LN (Lutensol® AP6, wetting agent having emulsifying and dispersant action based on ethoxylated alkylphenols) and 10% by weight of Emulphor® EL emulsifier based on ethoxylated fatty alcohols)
(§4) and diluted to give the desired concentraton, using acetone in the case of a) and water in the case of b).
(§5) After the experiments had been concluded, in each case the lowest concentration at which the compounds still caused an 80-100% inhibition or mortality in comparison with untreated controls was determined (limit or minimum concentration).
Tobacco plants approximately 10 cm high were treated with the aqueous preparation of active ingredient. After the plants had dried, they were populated with in each case 10 3rd instar larvae. Mortality and antifeeding effect were assessed after 48 hours.

`C#CCON=C(C)C(C)=NOc1ccccc1C(=COC)C(=O)OC` [I(2).17] was tested. Which minimal effective concentration did it give?
The minimal effective concentration was 40 µg/mL.

Each compound was assayed on Tetranychus telarius (assay: Tetranychus telarius (greenhouse red spider mite), contact action). Details: 120 h, infested dwarf beans in pots, assessed after 5 days in the greenhouse, read-out: limit concentration (lowest concentration still causing 80-100% inhibition or mortality).
Type: in vivo
Description: as §1, §2, §3, §4, §5
After 5 days in the greenhouse, the result of the control measures was determined by means of a stereomicroscope.

For `CON=C(C)C(C)=NOc1ccccc1C(=NOC)C(=O)OC` [I(2).2, methyl methoxyimino-[2-(2-methoxyimino-1-methylpropylideneaminooxy)phenyl]acetate], which minimal effective concentration is on record?
The minimal effective concentration was ≤ 200 µg/mL.

For `COC=C(C(=O)OC)c1ccccc1ON=C(C)C(C)=NOC(C)C` [I(2).6], which minimal effective concentration is on record?
The minimal effective concentration was ≤ 200 µg/mL.

With `COC=C(C(=O)OC)c1ccccc1ON=C(C)C(C)=NOC` [I(2).7, methyl 3-methoxy-[2-(2-methoxyimino-1-methyl-propylideneaminooxy)phenyl]acrylate] as the compound, how does the minimal effective concentration read?
Its minimal effective concentration is ≤ 200 µg/mL.

For `CNC(=O)C(=NOC)c1ccccc1ON=C(C)C(C)=NOC(C)C` [I(2).8], which minimal effective concentration is on record?
Its minimal effective concentration is ≤ 200 µg/mL.

How did the minimal effective concentration turn out when `CCON=C(C)C(C)=NOc1ccccc1C(=NOC)C(=O)OC` [I(2).9] was run?
The minimal effective concentration was ≤ 200 µg/mL.

How did the minimal effective concentration turn out when `CON=C(C(=O)OC)c1ccccc1ON=C(C)C(C)=NOC(C)C` [I(2).13] was run?
The minimal effective concentration was ≤ 200 µg/mL.

How did the minimal effective concentration turn out when `CCC(=NOc1ccccc1C(=COC)C(=O)OC)C(C)=NOC` [I(2).14] was run?
Its minimal effective concentration is ≤ 200 µg/mL.

With `CCON=C(C)C(C)=NOc1ccccc1C(=COC)C(=O)OC` [I(2).15] as the compound, how does the minimal effective concentration read?
Its minimal effective concentration is ≤ 200 µg/mL.

Which minimal effective concentration does the source give for `C#CCON=C(C)C(C)=NOc1ccccc1C(=NOC)C(=O)OC` [I(2).16] here?
The minimal effective concentration was ≤ 200 µg/mL.

How did the minimal effective concentration turn out when `C#CCON=C(C)C(C)=NOc1ccccc1C(=COC)C(=O)OC` [I(2).17] was run?
Its minimal effective concentration is ≤ 200 µg/mL.

For `CCC(=NOC)C(C)=NOc1ccccc1C(=NOC)C(=O)NC` [I(2).19], which minimal effective concentration is on record?
The minimal effective concentration was ≤ 200 µg/mL.

With `CCC(=NOC)C(C)=NOc1ccccc1C(=COC)C(=O)OC` [I(2).20] as the compound, how does the minimal effective concentration read?
The minimal effective concentration was ≤ 200 µg/mL.

`CCC(=NOC)C(C)=NOc1ccccc1C(=NOC)C(=O)OC` [I(2).21] was tested. Which minimal effective concentration did it give?
Its minimal effective concentration is ≤ 200 µg/mL.

These compounds were tested on mitochondria of the yeast Saccharomyces cerevisiae (assay: Inhibition of mitochondrial respiration (photometric cytochrome c reduction rate in isolated mitochondria)). Details: Saccharom. cerevisiae mitochondria; relative to reference substance enol ether stilbene.
Type: biochemical
Description: To determine the effect of the compounds according to the invention on mitochondrial respiration, it is first necessary to isolate the mitochondria from the test organisms. In the case of the yeast Saccharomyces cerevisiae, a 30 to 40% cell suspension of the fungus is disrupted, to this end, in an aqueous solution of 0.6 M Mannitol+0.01 M tris[hydroxymethyl]aminomethane+0.002 M disodium ethylenediaminetetraacetate (pH 6.8) using a glass bead mill, and the extract is fractionated by means of differential centrifugation at 1000×g and 12000×g. The mitochondria are in the precipitate of the 12000×g centrifugation.
The effect of the compounds on the respiration chain is determined by adding a solution of the test compound in dimethyl sulfoxide to a suspension of mitochondria in an aqueous solution of 0.01 M tris[hydroxymethyl]aminomethane+0.65 M sorbitol+0.01 M KH2 PO4 +0.01 M KCl+0.0004 M disodium ethylenediamine-tetraacetate+0.3% bovine serum albumin+0.0007 M KCN+6×10^-6 ubiquinone-50+0.01 M sodium succinate+0.15% cytochrome c (pH 7.5), and the reduction rate of the cytochrome c is determined photometrically on the basis of the increased absorption at 546 nm. A batch with a corresponding amount of pure DMSO is used as control. The inhibitory value for the active ingredient at the concentration shown in each case is then calculated as follows. [formula] where ΔE is the difference in absorption, At the difference in time, [formula]
In the table which follows, the action of a series of compounds according to the invention as respiration inhibitors on the mitochondria of the yeast Saccharomyces cerevisiae, the phyto-pathogenic fungus Drechslera sorokiniana and the common housefly Musca domestics.
In each case, the inhibition of mytochondrial respiration is given as I50 value (this being the concentration of test substance where a 50% inhibition is observed) and as F value, this being a relative value defined as follows: [formula]
The reference substance is the so-called enol ether stilbene, of the following formula: [drawing 80]

For `CON=C(C(=O)OC)c1ccccc1ON=C(C)c1cccc(C)c1` [I(1).1, methyl methoxyimino-[2-(1-meta-tolylethylideneaminooxy)phenyl]acetate], which “F value (relative value)” value is on record?
Its value is 0.96.

`CNC(=O)C(=NOC)c1ccccc1ON=C(C)c1cccc(C)c1` [I(1).2, 2-methoxyimino-N-methyl-2-[2-(1-meta-tolylethylideneamino-oxy)phenyl]acetamide] was tested. Which “F value (relative value)” value did it give?
The value was 11.

For `CON=C(C)C(C)=NOc1ccccc1C(=NOC)C(=O)OC` [I(2).2, methyl methoxyimino-[2-(2-methoxyimino-1-methylpropylideneaminooxy)phenyl]acetate], which “F value (relative value)” value is on record?
The value was 0.43.

How did the “F value (relative value)” value turn out when `CNC(=O)C(=NOC)c1ccccc1ON=C(C)C(C)=NOC` [I(2).3, N-methyl-methoxyimino-[2-(2-methoxyimino-1-methylpropylideneaminooxy)phenyl]acetamide] was run?
Its value is 9.6.

Each compound was assayed on Aphis fabae (assay: Aphis fabae (blackbean aphid), contact action). Details: infested dwarf beans (Vicia faba), mortality after 24 hours, read-out: limit concentration (lowest concentration still causing 80-100% inhibition or mortality).
Type: in vivo
Description: as §1, §2, §3, §4, §5
Severely infested dwarf beans (Vicia faba) were treated with the aqueous preparation of active ingredient. After 24 hours, the mortality rate was determined.

`CCON=C(C)C(C)=NOc1ccccc1C(=NOC)C(=O)OC` [I(2).9] was tested. Which minimal effective concentration did it give?
Its minimal effective concentration is 200 µg/mL.
